The results in this text go back to ChEMBL document CHEMBL3988442, “University of Dundee, Small-Polar-MMV Screening Library” (2021).

Experiment [1] is described as follows: microbe, parasite or virus in culture. The note with it: Mycobacterium tuberculosis, 96 h, read-out: pIC50 (converted).
Experiment [2] can be described thus: microbe, parasite or virus in culture. The note with it: Mycobacterium tuberculosis, 72 h, read-out: pIC50 (converted).

SMILES strings stand for the structures.

With `COC(=O)C(C)OC(=O)c1cccnc1SC` (stereo not given), the IC50 in experiment [1] and in experiment [2] was above 501 µM in each case.

As for `COC(=O)c1ccc(COc2ccccc2CO)o1`, the IC50 in experiment [1] was 250 µM; in experiment [2] it was 230 µM.

As to `N#CCOC(=O)c1ccc2c(c1)OCCCO2`, the IC50 is 182 µM in experiment [1] and above 501 µM in experiment [2].

As for `CCNC(=O)NC(c1ccc2c(c1)OCCO2)C(C)C` (stereo not given), the IC50 in experiment [1] and in experiment [2] was above 501 µM in each case.

For `NCCC1CN(Cc2cc3ccccc3s2)CCO1` (stereo not given), the IC50 in experiment [1] was 332 µM; in experiment [2], 308 µM.

For `CC(C)CCn1ccc(NC(=O)C2(O)CCC2)n1`, the IC50 in experiment [1] is 331 µM; in experiment [2] it was 308 µM.

Consider `Cn1ccc(CNC(=O)NCC2CC2)c1`, for which the IC50 in experiment [1] and in experiment [2] was above 501 µM each time.

For the compound `CCCn1cc(CNc2ccc(F)cn2)cn1`, the IC50 in experiment [1] is 234 µM; in experiment [2] it was 160 µM.

Regarding `COc1ccc(C(=O)N(C)CCn2cccn2)cc1`, the IC50 in experiment [1] and in experiment [2] was above 501 µM in each case.

Consider `N#Cc1ccccc1N1CCCC(N)C1` (stereo not given), for which the figures for the IC50 in experiment [1] and in experiment [2] were 142 µM and 79.7 µM, respectively.

In the case of `COc1cccc(Nc2ccc(N)nc2)c1`, the figures for the IC50 in experiment [1] and in experiment [2] were 241 µM and 128 µM, respectively.

With `Cc1cc(Br)oc1C(=O)N1CCCN(C)CC1`, the IC50 was above 501 µM in experiment [1] and 248 µM in experiment [2].

As for `CN(C)S(=O)(=O)N(CCO)Cc1ccc(Cl)c(Cl)c1`, the IC50 in experiment [1] was 308 µM; in experiment [2], 216 µM.

As for `CCCOc1cc(CNC(=O)c2nccn2C)ccn1`, the IC50 was 201 µM in experiment [1] and 248 µM in experiment [2].

Take `CC(C)Oc1ccc(S(=O)(=O)N2CCC(N)C2)cc1` (stereo not given): the IC50 was above 501 µM in experiment [1] and 212 µM in experiment [2].

With `O=C(NCCSC1CCCC1)c1ccccn1`, the values for the IC50 in experiment [1] and in experiment [2] were above 501 µM and 173 µM, respectively.

For `CC1(C)CNCCC(=O)C1`, the IC50 in experiment [1] was 246 µM; in experiment [2] it was 259 µM.

`O=C(CC1Sc2ccc(Cl)cc2NC1=O)OCCO` (stereo not given): the figures for the IC50 in experiment [1] and in experiment [2] were 286 µM and 222 µM, respectively.

As for `CCN(CCn1cccn1)C(=O)c1cc(C(C)C)no1`, the IC50 in experiment [1] and in experiment [2] was above 501 µM throughout.

In the case of `CNC(=O)Nc1ccc(OC)c(OCCOC)c1`, the IC50 in experiment [1] was 219 µM; in experiment [2], 138 µM.

`CN(C1(C#N)CCC1)S(=O)(=O)c1ccccc1`: the IC50 in experiment [1] and in experiment [2] was above 501 µM throughout.

Take `CCOc1cccc(CNc2nc(N(C)C)n[nH]2)c1`: the IC50 in experiment [1] is 34.2 µM; in experiment [2], 57.4 µM.

As to `NCC(CO)Cc1ccc(F)c(Br)c1` (stereo not given), the IC50 in experiment [1] is 249 µM; in experiment [2], 375 µM.

For `COCCn1nnc(-c2cccc(OC)c2)n1`, the values for the IC50 in experiment [1] and in experiment [2] were 42.2 µM and 43.7 µM, respectively.

Turning to `Cc1cc(C(=O)Nc2ccc3c(c2)CCCN3)on1`, the results for the IC50 in experiment [1] and in experiment [2] were above 501 µM and 150 µM, respectively.

Take `CN(C)C(=O)CSCC(=O)NCc1ccc(Cl)cc1`: the IC50 in experiment [1] is above 501 µM; in experiment [2] it was 86.8 µM.

For the compound `COc1cc(CNC(=O)Nc2ccnc(C)c2)ccn1`, the IC50 is 98.2 µM in experiment [1] and 100 µM in experiment [2].

Consider `Cc1cc(Br)cc2cc(C(=O)NC(C)(CO)CO)oc12`, for which the IC50 in experiment [1] was 285 µM; in experiment [2], 369 µM.

As for `CCc1cccc2c1OCCC2N` (stereo not given), the IC50 in experiment [1] and in experiment [2] was above 501 µM each time.

With `CN(C)C(CN)C1CCCCC1` (stereo not given), the IC50 in experiment [1] was 252 µM; in experiment [2], 279 µM.

For `CCCOc1cc(CNC(=O)c2csnc2C)ccn1`, the IC50 in experiment [1] is 215 µM; in experiment [2] it was 350 µM.

Regarding `CN(Cc1ccc(Br)s1)CC(O)COCCO` (stereo not given), the values for the IC50 in experiment [1] and in experiment [2] were 165 µM and 236 µM, respectively.

With `O=C(NCCO)c1cc2c(F)cc(Br)cc2[nH]1`, the IC50 in experiment [1] is above 501 µM; in experiment [2], 257 µM.

`CCOCCC(=O)N1c2ccccc2OCC1C` (stereo not given): the IC50 was above 501 µM in experiment [1] and 97.6 µM in experiment [2].

On to `CN(Cc1ccc(O)cc1)C(=O)c1cc(Cl)c[nH]1`, for which the figures for the IC50 in experiment [1] and in experiment [2] were 187 µM and 173 µM, respectively.

As for `CC(C)CCNC(=O)Nc1ccc(-n2cccn2)nc1`, the results for the IC50 in experiment [1] and in experiment [2] were 90 µM and 103 µM, respectively.

Consider `CN(C)S(=O)(=O)NCCNc1cccc(Br)c1`, for which the IC50 in experiment [1] is 208 µM; in experiment [2], 154 µM.

`NCCCc1nc2ccccc2o1`: the IC50 is 255 µM in experiment [1] and 211 µM in experiment [2].

Take `COC(=O)c1cccc(OCC(O)C(F)(F)F)c1` (stereo not given): the IC50 in experiment [1] and in experiment [2] was above 501 µM each time.

For `CNc1nc(NCCS(C)(=O)=O)ncc1Br`, the IC50 in experiment [1] and in experiment [2] was above 501 µM throughout.

Turning to `CCNC(=O)CNc1cc(C)c(Cl)cc1OC`, the IC50 is above 501 µM in experiment [1] and 135 µM in experiment [2].

`COCCN1CCC(CNC(=O)N2CCC(C)CC2)C1` (stereo not given): the IC50 in experiment [1] was 83.9 µM; in experiment [2] it was 75.1 µM.

`CCc1ccc(CNc2ccc(CO)cn2)cc1`: the IC50 in experiment [1] was 356 µM; in experiment [2], 160 µM.

As to `COc1cccc(CCC(=O)N2CCCC2)c1`, the IC50 in experiment [1] is 8 µM; in experiment [2], 2.73 µM.

In the case of `COCCC(CO)NC(=O)c1cnn(C(C)C)c1C` (stereo not given), the IC50 in experiment [1] is 124 µM; in experiment [2], 110 µM.

Regarding `COc1cccc(-c2ncc(CN)s2)c1`, the IC50 in experiment [1] was 282 µM; in experiment [2] it was 161 µM.

Take `CCNCc1ccc2c(c1)OCO2`: the results for the IC50 in experiment [1] and in experiment [2] were above 501 µM and 280 µM, respectively.

For `CC(C)n1nnnc1SCCS(=O)(=O)c1ccccc1`, the values for the IC50 in experiment [1] and in experiment [2] were 164 µM and 82.8 µM, respectively.

Regarding `NCC(=O)N(Cc1cccs1)Cc1cccs1`, the results for the IC50 in experiment [1] and in experiment [2] were 68.7 µM and 114 µM, respectively.

Turning to `Cc1ccc(S(=O)(=O)NC(CN)C2CC2)c(F)c1` (stereo not given), the IC50 in experiment [1] and in experiment [2] was above 501 µM each time.

Take `NCC1Cc2ccccc21` (stereo not given): the values for the IC50 in experiment [1] and in experiment [2] were 278 µM and 114 µM, respectively.

As to `N#Cc1ccc(NC(=O)Cn2ccnc2)cc1`, the IC50 in experiment [1] and in experiment [2] was above 501 µM each time.

For `COCCC(=O)N1CCC(Nc2ncccc2Br)CC1`, the IC50 was 288 µM in experiment [1] and above 501 µM in experiment [2].

In the case of `Cc1cnc(N2CCC(O)CC2)c(Br)c1`, the IC50 in experiment [1] and in experiment [2] was above 501 µM in each case.

In the case of `COC(=O)C1CCN(C(=O)Cc2cccc(F)c2)CC1`, the IC50 in experiment [1] is above 501 µM; in experiment [2], 179 µM.

With `COc1ccccc1C(N)c1ccccn1` (stereo not given), the IC50 in experiment [1] was 453 µM; in experiment [2], 233 µM.

On to `CC(N)c1nc(-c2ccc(Br)cc2)c[nH]1` (stereo not given), for which the IC50 in experiment [1] is 242 µM; in experiment [2], 99.7 µM.

As for `CCSc1nnc(-c2ccc[nH]2)o1`, the IC50 was 188 µM in experiment [1] and 169 µM in experiment [2].

Take `CCc1ncc(C(=O)N2CCN(c3nccs3)CC2)s1`: the values for the IC50 in experiment [1] and in experiment [2] were above 501 µM and 79.4 µM, respectively.

In the case of `CCOC(=O)N1CCC(NC(=O)c2ccsc2)CC1`, the IC50 was above 501 µM in experiment [1] and 137 µM in experiment [2].

Regarding `FC(F)COCCn1nnc(-c2ccsc2)n1`, the IC50 in experiment [1] is 56.4 µM; in experiment [2], 255 µM.

As to `NS(=O)(=O)CC1CCN(c2ncc(Br)cn2)CC1`, the IC50 in experiment [1] is 424 µM; in experiment [2], 286 µM.

`COCC(C)NC(=O)CNc1ccc(OC)c(Br)c1` (stereo not given): the IC50 was 184 µM in experiment [1] and 172 µM in experiment [2].

Consider `CCNc1ccnc(C(=O)NCc2ccccc2)c1`, for which the values for the IC50 in experiment [1] and in experiment [2] were 148 µM and 169 µM, respectively.

Turning to `N#CCCCn1nnc(-c2ccccc2)n1`, the IC50 in experiment [1] was 178 µM; in experiment [2], 191 µM.

`O=C(NCC1CC1)c1cccc2nn[nH]c12`: the IC50 in experiment [1] is 256 µM; in experiment [2], 233 µM.

As for `COc1ccc(Cl)c(S(=O)(=O)NCCC(C)N)c1` (stereo not given), the IC50 was 187 µM in experiment [1] and 116 µM in experiment [2].

Take `Brc1cc2c(cc1CN1CCCNCC1)OCO2`: the IC50 was 460 µM in experiment [1] and 112 µM in experiment [2].

Turning to `COCCOCCCNC(=O)c1cn2cc(C)nc2s1`, the IC50 in experiment [1] is above 501 µM; in experiment [2], 271 µM.

Take `CCCN(CCC)S(=O)(=O)N1CCC2(CC1)OCCO2`: the IC50 in experiment [1] was above 501 µM; in experiment [2], 149 µM.

In the case of `CCCc1nnc(N2CCC3(CC2)OCC(C)O3)s1` (stereo not given), the results for the IC50 in experiment [1] and in experiment [2] were 45.5 µM and 34.3 µM, respectively.

Regarding `N#Cc1cc(Br)cc(S(=O)(=O)NCCCN)c1`, the IC50 in experiment [1] and in experiment [2] was above 501 µM in each case.

`CN(C)C(C)(C)CNC(=O)NCCC1CCCCO1` (stereo not given): the IC50 in experiment [1] and in experiment [2] was above 501 µM in each case.

With `COc1cc(Br)ccc1CCCNC(=O)c1c[nH]nn1`, the IC50 was 335 µM in experiment [1] and 143 µM in experiment [2].

On to `Cc1cc2nc(CN)[nH]c2cc1C`, for which the IC50 in experiment [1] is above 501 µM; in experiment [2] it was 148 µM.

Take `CNCC(=O)NC1CCN(Cc2ccc(Br)cc2)CC1`: the IC50 in experiment [1] was 294 µM; in experiment [2] it was 257 µM.

In the case of `CC(C)Cc1ccc(CS(=O)(=O)CCO)cc1`, the IC50 is 83.5 µM in experiment [1] and 353 µM in experiment [2].

Turning to `CC(C)c1csc(C(=O)N2CCOc3ncccc32)n1`, the IC50 in experiment [1] was 231 µM; in experiment [2], 139 µM.

`CCN(Cc1ccc(Cl)c(Cl)c1)C(=O)CCS(C)(=O)=O`: the IC50 is above 501 µM in experiment [1] and 129 µM in experiment [2].

With `CC(C)Cc1cc(C(=O)NCC(O)C(F)(F)F)[nH]n1` (stereo not given), the IC50 in experiment [1] was 160 µM; in experiment [2], 183 µM.

Consider `CC(C)C(=O)NCCCNC(=O)c1ccc(F)cc1O`, for which the IC50 was above 501 µM in experiment [1] and 125 µM in experiment [2].

In the case of `CN(CCc1ccc(Br)cc1)C(=O)CCCN`, the IC50 in experiment [1] was above 501 µM; in experiment [2] it was 179 µM.

Take `CC(CO)(CO)NCc1cnn(-c2ccc(Br)cc2)c1`: the IC50 in experiment [1] is 393 µM; in experiment [2] it was 238 µM.

For `CN(CCS(=O)(=O)c1ccc(Cl)cc1)CC(=O)N(C)C`, the IC50 is 105 µM in experiment [1] and 63.6 µM in experiment [2].

For `NCc1cc(Oc2cccc(F)c2)ccn1`, the IC50 in experiment [1] is above 501 µM; in experiment [2], 45.4 µM.
